Source: PMC6268586, “Effect of Wine and Vinegar Processing of Rhizoma Corydalis on the Tissue Distribution of Tetrahydropalmatine, Protopine and Dehydrocorydaline in Rats” (Molecules, 2012)
Read-outs that look alike come from different tables or passages of the source.

Test: Tissue distribution of THP, DHC and protopine in rat tissues after gastric gavage administration (HPLC-UV, non-compartmental analysis)
Format: in vivo, Wistar male rats
Conditions: male, Wistar, po, 26.1 mg/kg; for AUC(0-t): read-out: AUC0–24 h of DHC; for Cmax: read-out: Cmax of DHC; for MRT: read-out: MRT of DHC; for Tmax: read-out: Tmax of DHC
Procedure: The experimental protocol was approved by the University's Animal Ethics Committee. […] Rats had unlimited access to water. Standard food was given until 12 h before the experiments. Rhizoma Corydalis was processed according to Pharmacopoeia of Chinese Medicine and National Guideline of Traditional Chinese Medicinal Plants Processing. Briefly, fresh Rhizoma Corydalis was boiled in water till the pith turn light brown color. Cooked rhizome was sliced into pieces (4 mm, diameter) and dried at 25 °C. Dried slices were mixed with edible vinegar (100:20, rhizome/vinegar, w/v) or yellow wine (100:10, rhizome/wine, w/v) and the slices allowed to completely absorb the vinegar or wine. The soaked slices were then stir-fried in a metallic pan over a low flame till they were completely dry. The processed Rhizoma Corydalis was added with 70% ethanol (1:30 w/v) and sonicated for 1 h at room temperature. The extract was then concentrated to remove the ethanol residue and stored at 4 °C for further use. […] The ethanol extract of the unprocessed Rhizoma Corydalis and THP, DHC and protopine pure compound were used as the controls. Three hundred and sixty healthy rats were used in total and are divided into six groups (Group 1-6, sixty rats per group). Drugs were administrated by gastric gavage method. In order to keep the dose of THP, DHC and protopine constant in each group, the amount of ethanol extract of Rhizoma Corydalis administrated was normalized based on the dose of protopine pure compound used. The dose of THP and DHC pure compound administrated was same with that in the ethanol extract of Rhizoma Corydalis. The details were listed below. […] Rats were administrated with the 70% ethanol extract of unprocessed Rhizoma Corydalis at a dose of 17.75 g extract/kg body weight. […] Rats received the extract of vinegar-processed Rhizoma Corydalis at a dose of 15 g extract/kg rat body weight. Group 3: Rats were administrated with the extract of wine processed Rhizoma Corydalis at a dose of 15.78 g extract/kg body weight. […] Rats received THP pure compound at a dose of 6.45 mg/kg body weight. Group 6: Rats were administrated 26.10 mg of DHC pure compound/kg body weight. […] Brian tissue was further dissected into six parts: cerebrum, cerebellum, diencephalons, brain stem, hippocampus and striatum. All the tissue samples were rinsed with ice-old saline and stored at -20 °C until extraction. Tissue samples were homogenized in three volumes of ice-cold biological saline and centrifuged for 10 min at 10,000 g and 4 °C. An aliquot of the supernatant (0.5 mL) was collected. Liquid-liquid extraction was used to extract THP, DHC and protopine. One hundred microliter of 1.0 μg/mL nuciferin (internal standard) was mixed with 0.5 mL aliquots of the supernatant. […] The supernatant was evaporated completely under the nitrogen stream in a 60 °C water bath. The residue was redissolved in 100 μL of methanol. A CoMetro HPLC system (CoMetro Technology Ltd, South […], NJ, USA) with 6000 PVW detector UV-VIS detector was used. […] Ltd., Liaoning, China). Other chromatographic conditions were: column temperature, 35 °C; mobile phase, acetonitrile-0.1% phosphoric acid (pH 3.0) (30:70 v/v); flow rate, 1 mL/min; wavelength, 280 nm. Pharmacokinetic parameters were estimated by non-compartmental analysis using Equiv Test/PK (Statistical Solutions Ltd., Saugus, MA, USA). The maximum concentration (Cmax) and the time to reach the maximum concentration (Tmax) were directly obtained from the observed value. All data were represented as mean ± SD. Comparison of values between groups was performed using one-way ANOVA followed by Tukey's test for comparisons among four groups.

[1] = diencephalon, rat diencephalons

Compound: COc1cc2c(cc1OC)-c1c(C)c3ccc(OC)c(OC)c3c[n+]1CC2 [DHC, dehydrocorydaline]
- AUC(0-t) [1]: 210 ± 50 ng·h/mL
- Cmax [1]: 80 ± 20 ng/mL
- MRT [1]: 5.3 ± 0.12 h
- Tmax [1]: 31.2 ± 6.6 min
- AUC(0-t) (rat brain stem): 410 ± 60 ng·h/mL
- Cmax (rat brain stem): 160 ± 30 ng/mL
- MRT (rat brain stem): 4.29 ± 0.15 h
- Tmax (rat brain stem): 30 min
- AUC(0-t) (rat cerebellum): 170 ± 30 ng·h/mL
- Cmax (rat cerebellum): 50 ± 20 ng/mL
- MRT (rat cerebellum): 5.67 ± 0.32 h
- Tmax (rat cerebellum): 15 min
- AUC(0-t) (rat cerebrum): 150 ± 30 ng·h/mL
- Cmax (rat cerebrum): 50 ± 10 ng/mL
- MRT (rat cerebrum): 5.39 ± 0.19 h
- Tmax (rat cerebrum): 15 ± 1.2 min
- AUC(0-t) (rat heart): 850 ± 120 ng·h/mL
- Cmax (rat heart): 440 ± 130 ng/mL
- MRT (rat heart): 8.72 ± 6.38 h
- Tmax (rat heart): 15 min
- AUC(0-t) (rat hippocampus): 270 ± 60 ng·h/mL
- Cmax (rat hippocampus): 70 ± 20 ng/mL
- MRT (rat hippocampus): 8.43 ± 0.51 h
- Tmax (rat hippocampus): 64.8 ± 4.2 min
- AUC(0-t) (rat kidney): 890 ± 90 ng·h/mL
- Cmax (rat kidney): 310 ± 20 ng/mL
- MRT (rat kidney): 4.94 ± 0.12 h
- Tmax (rat kidney): 15 ± 0.6 min
- AUC(0-t) (rat liver): 1570 ± 340 ng·h/mL
- Cmax (rat liver): 620 ± 180 ng/mL
- MRT (rat liver): 4.85 ± 0.1 h
- Tmax (rat liver): 15 min
- AUC(0-t) (rat lung): 570 ± 130 ng·h/mL
- Cmax (rat lung): 370 ± 110 ng/mL
- MRT (rat lung): 3.98 ± 0.1 h
- Tmax (rat lung): 15 ± 0.6 min
- AUC(0-t) (rat spleen): 830 ± 190 ng·h/mL
- Cmax (rat spleen): 360 ± 80 ng/mL
- MRT (rat spleen): 3.26 ± 0.08 h
- Tmax (rat spleen): 15 ± 6 min
- AUC(0-t) (rat striatum): 210 ± 40 ng·h/mL
- Cmax (rat striatum): 60 ± 20 ng/mL
- MRT (rat striatum): 7.27 ± 0.3 h
- Tmax (rat striatum): 15 ± 0.6 min
